Assay results from patent publication US20240197729A1, “ALK-5 Inhibitors and Uses Thereof” (Sumitomo Pharma Oncology, Inc., priority 2021, published 2024).
pIC50: −log10 of the molar value.

How the values were obtained:
[1] = system: p-STAT3 (Tyr 705); experiment: A549 xenograft assay, p-STAT3; assay type: in vivo, mice; conditions: tumors 4 h after dosing
Source text: To test compounds for inhibition of in vivo on-target activity (ALK5/TGF-bR1 inhibition) as well as potential Janus Kinase (JAK) signaling off-target activity, the A549 murine xenograft model was utilized. An ALK5 inhibitor (e.g., vactosertib) is expected to reduce the amount of the TGF-beta signaling molecule phospho-SMAD-2 (pSMAD2) in the A549 xenograft cells. The TGF-beta-mediated phosphorylation of SMAD2 in A549 cells takes place at amino acid residue four hundred and sixty-five and four hundred and sixty-seven (both are serine residues). A JAK inhibitor (e.g., ruxolitinib) is expected to reduce the phosphorylation of signal transducer and activator of transcription (STAT) proteins such as STAT3 at amino acid residue 705 (tyrosine).
At eight weeks of age, female athymic nude mice (purchased from Charles River) were injected with approximately 3.5 million A549 cells (ATCC, CCL-185). Specifically, cells were harvested and resuspended in plain RPMI media (no phenol red added) and Matrigel (Corning 356237) at a one to one ratio, and two hundred-microliters were injected into the right hind flank of each mouse. Tumors were measured every three days by caliper and as tumors reached an average of seventy-eighty millimeters cubed, mice were randomized in groups of three. All compounds were resuspended in 1-methyl-2-pyrrolidinone (Sigma 494496) (10%) plus 20% Solutol (Sigma 42966) in water (90%). Vactosertib and ruxolitinib were included as controls as ALK5 signaling inhibitor and JAK signaling inhibitor, respectively. Both controls were given at seventy-five milligrams per kilogram to three mice. The drug suspensions were sonicated for fifteen minutes to generate a fine particle suspension before being given to the mice. Mice were dosed (per oral gavage) with drug at one hundred, seventy-five, fifty, or ten milligrams per kilogram, with three mice per group. A vehicle control group with three mice was used to establish the baseline level of phospho-SMAD-2 in the tumor xenograft.
Four hours after drug administration, tumors were harvested, snap frozen and stored at negative eighty degrees Celsius until further processing. The phospho-SMAD-2 levels were determined using the Bio-Plex Pro™ Phospho-Smad2 (Ser465/Ser467) Set (BioRad 171V50019M). The phospho STAT3 levels were determined using the bead/antibody set from the MILLIPLEXMAP STAT Cell Signaling Magnetic Bead 5-Plex Kit (Millipore 48-610MAG). Both phospho SMAD-2 levels and phospho STAT3 levels were normalized to ß-Tubulin (MILLIPLEX MAP ß-Tubulin Total Magnetic Bead MAPmate™, Millipore 46-713MAG) or GAPDH (MILLIPLEX MAP GAPDH Total Magnetic Bead MAPmate™, Millipore 46-667MAG) levels from each sample. All analytes were analyzed in a multiplex fashion with the Bio-Plex Pro Cell Signaling Reagent Kit (BioRad 171304006M). Briefly, frozen tumor (fifteen to thirty milligrams) was lysed in 100 μl lysis buffer, processed in bead mill tube, and centrifuged. The resulting lysate was used at 1:50 dilution for the assay according to the manufacturer's instructions. Bead suspension was analyzed using the Luminex system (MAGPIX).

[2] = molecular target: T1, ALK5 (Homo sapiens, UniProt P36897); experiment: LanthaScreen Eu Kinase Binding Assay, ALK5; conditions: 10-point titration, read-out: Kinase Inhibition: ALK5 IC50 (Lantha)
T1 sequence (P36897 34-503): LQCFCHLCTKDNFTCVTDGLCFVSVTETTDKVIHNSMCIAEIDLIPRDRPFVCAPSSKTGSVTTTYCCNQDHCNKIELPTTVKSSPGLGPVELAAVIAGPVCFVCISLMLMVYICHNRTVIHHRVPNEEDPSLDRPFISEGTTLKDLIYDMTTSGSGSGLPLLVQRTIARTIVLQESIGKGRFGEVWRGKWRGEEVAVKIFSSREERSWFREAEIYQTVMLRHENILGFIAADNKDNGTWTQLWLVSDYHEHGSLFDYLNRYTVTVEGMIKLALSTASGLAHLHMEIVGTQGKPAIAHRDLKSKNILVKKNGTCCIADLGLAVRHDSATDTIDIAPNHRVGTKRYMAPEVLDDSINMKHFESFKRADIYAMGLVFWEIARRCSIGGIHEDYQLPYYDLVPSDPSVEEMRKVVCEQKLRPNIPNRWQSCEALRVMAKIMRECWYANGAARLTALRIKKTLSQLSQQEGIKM
Protocol: Selected compounds of the present disclosure were assayed for inhibitory activity against ALK5 and ALK2. Activity determinations and selectivity were conducted by Thermo Fisher Scientific SelectScreen™ Biochemical Kinase Profiling Service using their LanthaScreen™ Eu Kinase Binding Assay Screening.
Binding of an Alexa Fluor™ conjugate or “tracer” to a kinase is detected by addition of a Eu-labeled anti-tag antibody. Binding of the tracer and antibody to a kinase results in a high degree of FRET, whereas displacement of the tracer with a kinase inhibitor results in a loss of FRET. This assay is carried out by mixing the compound tested with the reagents and reading; no development step is required.
Life Technologies' Kinase Tracers are based on ATP-competitive kinase inhibitors, making them suitable for detection of any compounds that bind to the ATP site. Inhibitors that bind the ATP site include both Type I kinase inhibitors, which bind solely to the ATP site, and Type II inhibitors (e.g., Gleevec®/Imatinib, Sorafenib, BIRB-796), which bind to both the ATP site and a second site often referred to as the allosteric site.
The test compounds were screened in 1% DMSO (final) in the well. For 10-point titrations, 3-fold serial dilutions were conducted from the starting concentration (see Table 2 below).
All Kinase/Antibody Mixtures were diluted to a 2× working concentration in the specified kinase buffer. The 4× AlexaFluor labeled Tracer was prepared in Kinase Buffer.
• Bar-coded, low volume, white, 384-well plate (Greiner Cat. #784207) • 1. 160 nL—100× Test Compound in 100% DMSO • 2. 3.84 μL—Kinase Buffer • 3. 8.0 μL—2× Kinase/Antibody Mixture • 4. 4.0 μL—4× Tracer • 5. 30-second plate shake • 6. 60-minute incubation at room temperature • 7. Read on fluorescence plate reader and analysis of the data
The following controls were made for each individual kinase and were located on the same plate as the kinase:
100% Displacement Control: The minimum Emission Ratio was established by the 100% Displacement Control wells, which contained the highest concentration of the known inhibitor used in that assay.
Known Inhibitor: A known inhibitor control standard curve, 10-point titration, was run for each individual kinase on the same plate as the kinase to ensure the inhibitor was displaced within an expected IC50 range previously determined.
The following equations were used for each set of data points: […]
Data generated were plotted using the graphing software XLfit from IDBS. The dose response curve was curve fit to model number 205.

Row | Structure (SMILES) | Average % p-STAT3 (Tyr 705) of vehicle ([1]; 75 mg/kg per oral gavage) [%] | pIC50 [2] | Average % p-STAT3 (Tyr 705) of vehicle ([1]; 10 mg/kg per oral gavage) [%] | Average % p-STAT3 (Tyr 705) of vehicle ([1]; 50 mg/kg per oral gavage) [%] | Average % p-STAT3 (Tyr 705) of vehicle ([1]; 100 mg/kg per oral gavage) [%]
1 | Cc1cccc(-c2[nH]c(CNc3ccccc3F)nc2-c2ccc3ncnn3c2)n1 [Vactosertib, vactosertib, reference compound] | 63 |  |  |  | 
2 | Clc1cccc2c(Nc3ccnc(Nc4cccc(N5CCOCC5)c4)c3)cnnc12 [Compound 04, N4-(8-chlorocinnolin-4-yl)-N2-[3-(morpholin-4-yl)phenyl]pyridine-2,4-diamine] | 59 | 8.30 to 8.70 | 88 | 73 | 97
3 | Cc1cccc2c(Nc3ccnc(Nc4ccc(N5CCOCC5)cc4)c3)cnnc12 [Compound 05, N4-(8-methylcinnolin-4-yl)-N2-[4-(morpholin-4-yl)phenyl]pyridine-2,4-diamine] | 77 | 8.30 to 8.70 | 107 | 85 | 93
4 | Cc1nn(CC(F)(F)F)cc1Nc1cc(Nc2cnnc3c(C)cccc23)ccn1 [Compound 01, N2-[3-methyl-1-(2,2,2-trifluoroethyl)-1H-pyrazol-4-yl]-N4-(8-methylcinnolin-4-yl)pyridine-2,4-diamine] | 66 | ≥ 8.70 | 92 | 70 | 76
